In patent US20140350273A1, “PEDIATRIC USES OF CABAZITAXEL” (AVENTIS PHARMA S.A., priority 2012, published 2014):
Read-outs that look alike come from different tables or passages of the source.

Tested on: human osteosarcoma DM77
Assay type: in vivo
Settings: for Tumor Volume Data (Day 21) Median / ΔT/ΔC % / ΔT/ΔC: day 21; for MTTE / T-C: volume endpoint 1400 mm^3
Experimental: In the reported examples supporting this invention, vials of the clinical formulation of cabazitaxel and docetaxel were used. […] The resultant solution contains 10 mg/mL of cabazitaxel. Stock solution of cabazitaxel was then diluted in 0.9% sodium chloride.
This efficacy may be quantified, for example, as changes in tumor volume for each treated (T) and control (C) group, which are calculated for each animal and each day by subtracting the tumor volume on the day of first treatment (staging day) from the tumor volume on the specified observation day. This allows calculating the tumor growth inhibition: ΔT/ΔC=(median delta T/median delta C)×100. Individual tumor volume changes from baseline are thereafter analyzed by a non-parametric two-way ANOVA-TYPE (with factors: group and repeated days) followed by a post-hoc contrasts analysis, with Bonferroni-Holm adjustment for multiplicity, comparing all treated groups to the control group. […] A probability less than 5% (p<0.05) was considered as significant.
Based on the National Cancer Institute (NCl) standards, a ΔT/ΔC≦40% is the minimal level required to declare activity.
This efficacy may also be quantified by the number of tumor regressions observed after therapy. Individual mice reporting a tumor volume ≦50% of the Day 0 measurement for two consecutive measurements over a seven day period were considered partial responders (PR). Individual mice lacking palpable tumors (<4×4 mm^2 for two consecutive measurements over a seven day period) were classified as complete responders (CR); a CR that persisted until study completion was considered a tumor-free survivor (TFS).
Efficacy could also be determined at study completion, using tumor growth delay (T-C) in days, which is calculated using the median time to endpoint (MTTE) value for each treatment (T) group versus control (C). A Log Rank multiple comparison test with Bonferroni-Holm adjustment for multiplicity was applied on individual TTE to compare the treated groups to the control group.
The efficacy of cabazitaxel in comparison with docetaxel on pediatric patient-derived tumor xenografts was determined experimentally in the following manner:
The animals subjected to the experiment are subcutaneously grafted unilaterally with approximately 30 mg of a tumor fragment from low passage pediatric patient-derived tumor xenografts. The animals are implanted with a human patient-derived pediatric tumor xenografted in immuno-compromised mice (Harlan; nu/nu). Several days post tumor implantation, mice are randomized according to their tumor burden to the different groups of treatments and controls. The agents are dosed intravenously at 5.8, 9.3, 15 or 24.2 mg/kg every 4 days for a total of 3 doses (q4d×3) to mice bearing a tumor burden at start of therapy (day 0) ranged from 125 to 250 mm^3.
Beginning Day 0, animals were observed daily and weighed twice weekly using a digital scale; data including individual and mean gram weights (Mean We±SD), mean percent weight change versus Day 0 were recorded for each group. Animal deaths were recorded daily and designated as drug-related (D), technical (T), tumor related (B), or unknown (U) based on weight loss and gross observation; single agent or combination groups reporting a mean >20% for a period of 7 days and/or >10% mortality were considered above the maximum tolerated dose (MTD) for that treatment on the evaluated regimen.
The selected tumor model, DM77, was a low passage patient-derived tumor xenograft derived from an osteosarcoma taken from the lung of a patient. […]

SMILES: CO[C@H]1C(=O)[C@]2(C)[C@@H](OC)C[C@H]3OC[C@@]3(OC(C)=O)[C@H]2[C@H](OC(=O)c2ccccc2)[C@]2(O)C[C@H](OC(=O)[C@H](O)[C@@H](NC(=O)OC(C)(C)C)c3ccccc3)C(C)=C1C2(C)C [Cabazitaxel, 4α-acetoxy-2α-benzoyloxy-5β,20-epoxy-1β-hydroxy-7β,10β-dimethoxy-9-oxo-11-taxen-13α-yl (2R,3S)-3-tert-butoxycarbonyl-amino-2-hydroxy-3-phenylpropionate]
- #CR (5.8 mg/kg i.v./q4dx3): 0/0/0
- #PR (5.8 mg/kg i.v./q4dx3): 0/0/0
- #TFS (5.8 mg/kg i.v./q4dx3): 0/0/0
- Drug Deaths Total (5.8 mg/kg i.v./q4dx3): 0
- Weight Change at Nadir % (5.8 mg/kg i.v./q4dx3): −5%
- Weight Change at Nadir Day (5.8 mg/kg i.v./q4dx3): 11 days
- Tumor Volume Data (Day 21) Median (5.8 mg/kg i.v./q4dx3): 333 mm^3
- ΔT/ΔC % (5.8 mg/kg i.v./q4dx3): 14.1%
- MTTE (5.8 mg/kg i.v./q4dx3): 49 days
- T-C (5.8 mg/kg i.v./q4dx3): 24 days
- ΔT/ΔC (5.8 mg/kg q4d×3 IV): 14.1%
- tumor volume changes from baseline, Median +/− nMAD (5.8 mg/kg, DAY 4): 47 +/− 47
- tumor volume changes from baseline, Median +/− nMAD (5.8 mg/kg, DAY 7): 121 +/− 80
- tumor volume changes from baseline, Median +/− nMAD (5.8 mg/kg, DAY 11): 162 +/− 89
- tumor volume changes from baseline, Median +/− nMAD (5.8 mg/kg, DAY 14): 162 +/− 97
- tumor volume changes from baseline, Median +/− nMAD (5.8 mg/kg, DAY 18): 195 +/− 122
- tumor volume changes from baseline, Median +/− nMAD (5.8 mg/kg, DAY 21): 129 +/− 129
- tumor volume changes from baseline, Median +/− nMAD (5.8 mg/kg, DAY 25): 96 +/− 115
- tumor volume changes from baseline, Median +/− nMAD (5.8 mg/kg, DAY 28): 96 +/− 115
- tumor volume changes from baseline, Median +/− nMAD (5.8 mg/kg, DAY 32): 96 +/− 109
- tumor volume changes from baseline, Median +/− nMAD (5.8 mg/kg, DAY 35): 169 +/− 182
- tumor volume changes from baseline, Median +/− nMAD (5.8 mg/kg, DAY 39): 239 +/− 172.5
- tumor volume changes from baseline, Median +/− nMAD (5.8 mg/kg, DAY 42): 240 +/− 162
- tumor volume changes from baseline, Median +/− nMAD (5.8 mg/kg, DAY 46): 364.5 +/− 226
- tumor volume changes from baseline, Median +/− nMAD (5.8 mg/kg, DAY 49): 402 +/− 254
- tumor volume changes from baseline, Median +/− nMAD (5.8 mg/kg, DAY 53): 706 +/− 516
- tumor volume changes from baseline, Median +/− nMAD (5.8 mg/kg, DAY 56): 878 +/− 602.5
- #CR (9.3 mg/kg i.v./q4dx3): 0
- #PR (9.3 mg/kg i.v./q4dx3): 2
- #TFS (9.3 mg/kg i.v./q4dx3): 0
- Drug Deaths Total (9.3 mg/kg i.v./q4dx3): 0
- Weight Change at Nadir % (9.3 mg/kg i.v./q4dx3): −8%
- Weight Change at Nadir Day (9.3 mg/kg i.v./q4dx3): 11 days
- Tumor Volume Data (Day 21) Median (9.3 mg/kg i.v./q4dx3): 131 mm^3
- ΔT/ΔC % (9.3 mg/kg i.v./q4dx3): 0%
- MTTE (9.3 mg/kg i.v./q4dx3): >60 days
- T-C (9.3 mg/kg i.v./q4dx3): >35 days
- numbers of PR (9.3 mg/kg q4d×3 IV): 2/9
- ΔT/ΔC (9.3 mg/kg q4d×3 IV): 0%
- tumor volume changes from baseline, Median +/− nMAD (9.3 mg/kg, DAY 4): 54 +/− 54
- tumor volume changes from baseline, Median +/− nMAD (9.3 mg/kg, DAY 7): 73 +/− 73
- tumor volume changes from baseline, Median +/− nMAD (9.3 mg/kg, DAY 11): 19 +/− 35
- tumor volume changes from baseline, Median +/− nMAD (9.3 mg/kg, DAY 14): 19 +/− 35
- tumor volume changes from baseline, Median +/− nMAD (9.3 mg/kg, DAY 18): 0 +/− 33
- tumor volume changes from baseline, Median +/− nMAD (9.3 mg/kg, DAY 21): 0 +/− 34
- tumor volume changes from baseline, Median +/− nMAD (9.3 mg/kg, DAY 25): −19 +/− 26
- tumor volume changes from baseline, Median +/− nMAD (9.3 mg/kg, DAY 28): −45 +/− 26
- tumor volume changes from baseline, Median +/− nMAD (9.3 mg/kg, DAY 32): −45 +/− 26
- tumor volume changes from baseline, Median +/− nMAD (9.3 mg/kg, DAY 35): −66 +/− 7
- tumor volume changes from baseline, Median +/− nMAD (9.3 mg/kg, DAY 39): −66 +/− 7
- tumor volume changes from baseline, Median +/− nMAD (9.3 mg/kg, DAY 42): −66 +/− 7
- tumor volume changes from baseline, Median +/− nMAD (9.3 mg/kg, DAY 46): −66 +/− 7
- tumor volume changes from baseline, Median +/− nMAD (9.3 mg/kg, DAY 49): −66 +/− 7
- tumor volume changes from baseline, Median +/− nMAD (9.3 mg/kg, DAY 53): −47 +/− 25
- tumor volume changes from baseline, Median +/− nMAD (9.3 mg/kg, DAY 56): −47 +/− 26
- #CR (15 mg/kg i.v./q4dx3): 0
- #PR (15 mg/kg i.v./q4dx3): 6
- #TFS (15 mg/kg i.v./q4dx3): 0
- Drug Deaths Total (15 mg/kg i.v./q4dx3): 0
- Weight Change at Nadir % (15 mg/kg i.v./q4dx3): −9%
- Weight Change at Nadir Day (15 mg/kg i.v./q4dx3): 11 days
- Tumor Volume Data (Day 21) Median (15 mg/kg i.v./q4dx3): 78 mm^3
- ΔT/ΔC % (15 mg/kg i.v./q4dx3): −9.3%
- MTTE (15 mg/kg i.v./q4dx3): >60 days
- T-C (15 mg/kg i.v./q4dx3): >35 days
- tumor volume changes from baseline, Median +/− nMAD (15 mg/kg, DAY 4): 0 +/− 0 (n = 9)
- tumor volume changes from baseline, Median +/− nMAD (15 mg/kg, DAY 7): 0 +/− 25
- tumor volume changes from baseline, Median +/− nMAD (15 mg/kg, DAY 11): −53 +/− 19
- tumor volume changes from baseline, Median +/− nMAD (15 mg/kg, DAY 14): −53 +/− 27
- tumor volume changes from baseline, Median +/− nMAD (15 mg/kg, DAY 18): −73 +/− 20
- tumor volume changes from baseline, Median +/− nMAD (15 mg/kg, DAY 21): −85 +/− 13
- tumor volume changes from baseline, Median +/− nMAD (15 mg/kg, DAY 25): −85 +/− 13
- tumor volume changes from baseline, Median +/− nMAD (15 mg/kg, DAY 28): −85 +/− 13
- tumor volume changes from baseline, Median +/− nMAD (15 mg/kg, DAY 32): −85 +/− 19
- tumor volume changes from baseline, Median +/− nMAD (15 mg/kg, DAY 35): −85 +/− 19
- tumor volume changes from baseline, Median +/− nMAD (15 mg/kg, DAY 39): −85 +/− 38
- tumor volume changes from baseline, Median +/− nMAD (15 mg/kg, DAY 42): −85 +/− 38
- tumor volume changes from baseline, Median +/− nMAD (15 mg/kg, DAY 46): −85 +/− 38
- tumor volume changes from baseline, Median +/− nMAD (15 mg/kg, DAY 49): −85 +/− 38
- tumor volume changes from baseline, Median +/− nMAD (15 mg/kg, DAY 53): −85 +/− 38
- tumor volume changes from baseline, Median +/− nMAD (15 mg/kg, DAY 56): −85 +/− 38
- #CR (24.2 mg/kg i.v./q4dx3): 1
- #PR (24.2 mg/kg i.v./q4dx3): 5
- #TFS (24.2 mg/kg i.v./q4dx3): 1
- Drug Deaths Total (24.2 mg/kg i.v./q4dx3): 0
- Weight Change at Nadir % (24.2 mg/kg i.v./q4dx3): −15%
- Weight Change at Nadir Day (24.2 mg/kg i.v./q4dx3): 14 days
- Tumor Volume Data (Day 21) Median (24.2 mg/kg i.v./q4dx3): 101.5 mm^3
- ΔT/ΔC % (24.2 mg/kg i.v./q4dx3): −6.9%
- MTTE (24.2 mg/kg i.v./q4dx3): >60 days
- T-C (24.2 mg/kg i.v./q4dx3): >35 days
- tumor volume changes from baseline, Median +/− nMAD (24.2 mg/kg, DAY 4): 22 +/− 22
- tumor volume changes from baseline, Median +/− nMAD (24.2 mg/kg, DAY 7): 0 +/− 9.5
- tumor volume changes from baseline, Median +/− nMAD (24.2 mg/kg, DAY 11): −26.5
- tumor volume changes from baseline, Median +/− nMAD (24.2 mg/kg, DAY 14): −29.5
- tumor volume changes from baseline, Median +/− nMAD (24.2 mg/kg, DAY 18): −61.5 +/− 27
- tumor volume changes from baseline, Median +/− nMAD (24.2 mg/kg, DAY 21): −63 +/− 25.5
- tumor volume changes from baseline, Median +/− nMAD (24.2 mg/kg, DAY 25): −69.5
- tumor volume changes from baseline, Median +/− nMAD (24.2 mg/kg, DAY 28): −60 +/− 28.5
- tumor volume changes from baseline, Median +/− nMAD (24.2 mg/kg, DAY 32): −60 +/− 28.5
- tumor volume changes from baseline, Median +/− nMAD (24.2 mg/kg, DAY 35): −60 +/− 35
- tumor volume changes from baseline, Median +/− nMAD (24.2 mg/kg, DAY 39): −60 +/− 35
- tumor volume changes from baseline, Median +/− nMAD (24.2 mg/kg, DAY 42): −71 +/− 46.5
- tumor volume changes from baseline, Median +/− nMAD (24.2 mg/kg, DAY 46): −71 +/− 46.5
- tumor volume changes from baseline, Median +/− nMAD (24.2 mg/kg, DAY 49): −71 +/− 43
- tumor volume changes from baseline, Median +/− nMAD (24.2 mg/kg, DAY 53): −64.5 +/− 45.5
- tumor volume changes from baseline, Median +/− nMAD (24.2 mg/kg, DAY 56): −64.5 +/− 46.5
- antitumor activity compared with docetaxel (conclusion of example 4, dose equivalent basis): more efficacious than docetaxel at both mid doses
